Values quoted from earlier work in patent publication US7157444B2, “Aminosalicylate derivatives for treatment of inflammatory bowel disease” (priority 2002, dated 2007).

Conditions: oral, 40 mL of a suspension of 1 g of ASA in water, fasted healthy subjects

Row | maximum plasma concentration [µg/mL] | time of maximum plasma concentration post-dose | SMILES
1 | 14.7 | Within an hour post-dose | Nc1ccc(O)c(C(=O)O)c1 [ASA, 5-aminosalicylic acid]
2 | 11.4 | Within an hour post-dose | CC(=O)Nc1ccc(O)c(C(=O)O)c1 [N-acetyl-ASA]
